Laboratory results taken from US8518939B2, “6-pyrimidinyl-pyrimid-4-one derivative” (Mitsubishi Tanabe Pharma Corporation, priority 2007, dated 2013).

Assays:
CYP2D6 = CYP2D6 (Homo sapiens, UniProt P10635); assay: Inhibitory activity on CYP2D6, human recombinant CYPs; assay type: in vitro ADME; details: human recombinant CYP2D6, substrate ethylene glycol ester of luciferin-6'-methyl ether; read-out: CYP 2D6 inhibition, IC50 value
Experimental: The purpose of this pharmacokinetic study was to investigate the inhibitory effects of test compounds on the specific metabolic activity of human CYP isozymes using human recombinant CYPs in vitro. […] The specific substrate and positive control is ethylene glycol ester of luciferin-6′-methyl ether and quinidine, respectively. The substrate for the CYP isozyme was incubated with human recombinant CYPs in the presence or absence of the test compounds and the metabolic activity of the CYP isozyme was determined. The reaction mixture was preincubated at 37° C. without NADPH generating system. The reaction was started by the addition of NADPH generating system, and then terminated by the addition of acetonitrile. The activities of the human CYP isozymes were measured by fluorescence signal (CYP2D6) of reaction mixture.

scopolamine-treated mice = assay: Object recognition test, 3 h inter-trial interval, scopolamine-induced episodic memory deficit

Sequence of CYP2D6 (P10635 whole entry): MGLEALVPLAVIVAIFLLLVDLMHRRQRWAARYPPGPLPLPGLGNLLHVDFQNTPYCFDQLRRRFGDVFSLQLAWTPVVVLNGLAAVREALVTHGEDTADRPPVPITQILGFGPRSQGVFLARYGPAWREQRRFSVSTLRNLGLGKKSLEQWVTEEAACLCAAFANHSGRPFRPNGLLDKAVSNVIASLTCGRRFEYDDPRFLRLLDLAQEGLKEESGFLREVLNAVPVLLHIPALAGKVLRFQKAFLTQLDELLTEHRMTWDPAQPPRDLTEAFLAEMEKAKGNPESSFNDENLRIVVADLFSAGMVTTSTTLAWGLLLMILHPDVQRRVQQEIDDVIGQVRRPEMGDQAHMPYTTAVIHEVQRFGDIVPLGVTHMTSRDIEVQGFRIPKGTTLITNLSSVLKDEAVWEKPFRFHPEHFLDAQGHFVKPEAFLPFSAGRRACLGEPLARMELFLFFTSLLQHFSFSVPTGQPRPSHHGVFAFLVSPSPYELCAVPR

SMILES | IC50 (CYP2D6) [µM] | melting point | recognition index (RI) (scopolamine-treated mice; scopolamine 1 mg/kg 30 minutes before acquisition, 0 mg/kg test compound, 3 h interval) [%] | effect on episodic memory deficits induced by scopolamine (scopolamine-treated mice; 3 mg/kg oral) | MED, prevention of episodic memory deficits (scopolamine-treated mice; scopolamine-treated mice) [mg/kg]
CN1[C@@H]2C[C@@H](OC(=O)[C@H](CO)c3ccccc3)C[C@H]1[C@@H]1O[C@@H]12 [scopolamine, reference compound] | – | – | 49.9 | – | –
Cc1nc(-c2ccc([C@H]3CN(c4nc(-c5ccncn5)cc(=O)n4C)CCO3)cc2)no1 [Compound of the present invention] | > 50 | 191 °C | – | ineffective | 10

More lines, main results first:

IC50 (CYP2D6) [µM] | melting point | SMILES | recognition index (RI) (scopolamine-treated mice; scopolamine 1 mg/kg 30 minutes before acquisition, 0 mg/kg test compound, 3 h interval) [%] | effect on episodic memory deficits induced by scopolamine (scopolamine-treated mice; 3 mg/kg oral) | MED, prevention of episodic memory deficits (scopolamine-treated mice; scopolamine-treated mice) [mg/kg]
> 50 | 179.8 °C (dec.) | Cn1ccnc1-c1ccc(C2CN(c3nc(-c4ccncn4)cc(=O)n3C)CCO2)cc1 (stereo not drawn) [Compound 4, 1-Methyl-2-{2-[4-(1-methyl-1H-imidazol-2-yl)-phenyl]-morpholin-4-yl}-1H-[4,4′]bipyrimidinyl-6-one] | – | – | –
> 50 | – | Cn1c(N2CCOC(c3nc(-c4ccccc4)no3)C2)nc(-c2ccncn2)cc1=O (stereo not drawn) [Compound 1, 1-Methyl-2-[2-(3-phenyl-[1,2,4]oxadiazol-5-yl)-morpholin-4-yl]-1H-[4,4′]bipyrimidinyl-6-one] | – | – | –
> 25 | – | Cn1c(N2CCOC(c3noc(-c4ccccc4)n3)C2)nc(-c2ccncn2)cc1=O (stereo not drawn) [Compound 2, 1-Methyl-2-[2-(5-phenyl-[1,2,4]oxadiazol-3-yl)-morpholin-4-yl]-1H-[4,4′]bipyrimidinyl-6-one] | – | – | –
